For orientation: IC50 means the concentration that gives 50% inhibition.

Values joined by “and” are separate entries in the source; they are usually repeats but may differ in a detail not shown here. Equal values may be shown once.

The record followed here is patent US11098033B2, “Ku inhibitors and their use” (INDIANA UNIVERSITY RESEARCH AND TECHNOLOGY CORPORATION, priority 2016, dated 2021).

Test [1] addresses T1, Recombinant human Ku heterodimer (Homo sapiens, UniProt P12956+P13010).
T1 construct: made in house; host or cells: insect cells infected with recombinant baculovirus
The experiment in a line: Ku-DNA binding assay. The following applies: Table 2, synthesized derivatives; several values in a cell = separate determinations; read-out: IC50. From the text:
Ku is a DNA end-binding protein that is essential for the repair of DNA double strand breaks via the NHEJ pathway. The mechanism of DNA binding by Ku is via a toroid structure that encircles double-stranded DNA from a terminus.

The test system of test [2] is NHEJ end joining in cell free extract from HEK 293. The experiment in a line: In vitro NHEJ (end joining) assay with cell free extract. It counts as biochemical. The settings on record: linearized plasmid DNA (3 kbp), HEK 293 cell free extract pre-incubated with inhibitor, ATP; read-out: IC50 of inhibition of end joining. How it is done:
Radiolabeled linearized DNA was incubated with whole cell extracts with increasing amounts of inhibitor NG-02-132.
A linearized plasmid DNA (3 kbp) is incubated with a cell free extract prepared from a NHEJ competent cell (HEK 293) and ATP. The results presented in FIG. 8 show the substrate alone in lane 1 and the degree of end joining control reactions as evidenced by the formation of plasmid multimers.

Test [3] relates to H460 non-small cell lung cancer cells, EMX1 locus. Description: Crispr/Cas9 mediated gene insertion at the EMX1 locus. It counts as cell-based. The text has this: To assess the effect of Ku inhibitors on genome engineering efficiency we designed an assay to quantify the recombination efficiency of a Crispr/Cas9 mediated gene insertion event. A donor insert of 2.2 kbp encoding puromycin resistance and a GFP gene was flanked by 800 bp homology arms directing the insert to the EMX1 locus. A guide RNA directing the Cas9 nuclease to the EMX1 gene was purchased and co-transfected with the donor construct and Cas9 expressing plasmid in H460 non-small cell lung cancer cells that were either treated with vehicle or 20 uM 205. 24 hours later, cells were placed under selection with puromycin for 5 days and plated in 96-well plates for single cell cloning. Clones were expanded, genomic DNA isolated and location specific PCR analysis was performed to assess accurate gene insertion at the EMX1 locus.

In test [4] the test system is NHEJ activity in H460 cells. The experiment in a line: Host cell reactivation assay of NHEJ mediated re-circularization of a linearized GFP plasmid. It counts as cell-based. From the text: Disruption of Ku-DNA binding should result in inhibition of NHEJ activity, and to test this inhibition we will employ a host cell reactivation assay. This assay utilizes a linearized plasmid encoding a GFP gene that is transfected into the cell and expressed upon NHEJ mediated re-circularization of the plasmid (Sears, CA., 2012 and Woods, D., 2015). Co-transfection of a circular RFP plasmid accounts for differences in transfection efficiency, and NHEJ mediated repair of the GFP plasmid can be quantified by assessing the ratio of green: red cells. This assay will be used to assess the Ku inhibitor compounds in H460 and HEK-293 cells, and the data obtained from these experiments will allow us to determine the sensitivity of the chemical compounds and effect of Ku inhibition on NHEJ activity. As this is a cellular assay, we will also utilize this assay to do a series of time course experiments to determine the optimal time to deliver the inhibitor to cells in order to achieve maximum inhibition of NHEJ activity.

T1 sequence (P12956 whole entry): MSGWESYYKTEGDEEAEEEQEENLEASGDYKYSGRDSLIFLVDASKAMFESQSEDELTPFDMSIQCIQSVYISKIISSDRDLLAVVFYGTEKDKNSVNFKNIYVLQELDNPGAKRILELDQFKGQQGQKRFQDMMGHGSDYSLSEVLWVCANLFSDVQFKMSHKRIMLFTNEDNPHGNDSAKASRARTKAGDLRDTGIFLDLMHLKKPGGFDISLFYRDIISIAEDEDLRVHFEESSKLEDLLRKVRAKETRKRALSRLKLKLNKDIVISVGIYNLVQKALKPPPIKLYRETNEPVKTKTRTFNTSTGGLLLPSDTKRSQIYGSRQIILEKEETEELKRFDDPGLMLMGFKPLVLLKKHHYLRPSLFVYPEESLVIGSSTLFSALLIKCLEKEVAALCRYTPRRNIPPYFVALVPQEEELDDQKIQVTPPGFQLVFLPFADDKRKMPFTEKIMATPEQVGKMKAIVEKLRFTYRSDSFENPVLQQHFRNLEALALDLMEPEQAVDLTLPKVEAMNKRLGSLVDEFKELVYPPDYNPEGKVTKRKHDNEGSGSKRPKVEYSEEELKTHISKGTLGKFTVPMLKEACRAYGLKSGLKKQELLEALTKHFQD
T1 sequence (P13010 whole entry): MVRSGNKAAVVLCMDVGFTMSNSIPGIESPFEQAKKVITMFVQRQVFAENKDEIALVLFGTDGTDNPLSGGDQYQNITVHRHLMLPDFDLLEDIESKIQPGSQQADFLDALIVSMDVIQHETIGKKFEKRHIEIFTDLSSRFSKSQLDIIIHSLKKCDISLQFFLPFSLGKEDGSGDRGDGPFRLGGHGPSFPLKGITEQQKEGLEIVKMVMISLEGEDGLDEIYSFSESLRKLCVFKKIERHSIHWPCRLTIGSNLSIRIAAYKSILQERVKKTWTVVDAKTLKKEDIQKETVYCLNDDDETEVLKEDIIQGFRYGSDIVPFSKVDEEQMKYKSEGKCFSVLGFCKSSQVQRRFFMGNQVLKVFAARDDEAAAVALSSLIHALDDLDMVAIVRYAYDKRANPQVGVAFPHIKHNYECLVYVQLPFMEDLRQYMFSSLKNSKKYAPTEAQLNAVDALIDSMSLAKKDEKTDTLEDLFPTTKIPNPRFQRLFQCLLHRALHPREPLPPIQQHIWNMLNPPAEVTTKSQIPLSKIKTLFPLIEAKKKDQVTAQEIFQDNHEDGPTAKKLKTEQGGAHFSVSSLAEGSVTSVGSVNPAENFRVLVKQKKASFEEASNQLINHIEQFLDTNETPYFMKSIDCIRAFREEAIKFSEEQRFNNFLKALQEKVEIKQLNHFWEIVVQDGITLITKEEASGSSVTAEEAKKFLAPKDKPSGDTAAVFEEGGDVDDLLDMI

For the molecule `COc1cccc(NC(=O)c2cc(-c3ccc(CC4C(=O)N(c5cccc(C(=O)O)c5)N=C4C)o3)ccc2Cl)c1` (stereo not shown) [NG-02-132/ NG-02-149, 3-(4-((5-(4-Chloro-3-((3-methoxyphenyl)carbamoyl)phenyl)furan-2-yl)methyl)-3-methyl-5-oxo-4,5-dihydro-1H-pyrazol-1-yl)benzoic acid], the 50% inhibitory concentration (IC50) is 1 µM (2×) and 4 µM and 6 µM in test [1]; about 15 µM in test [2].

For the molecule `COc1cccc(NC(=O)c2cc(-c3ccc(CC4C(=O)N(c5cccc(-c6nnn[nH]6)c5)N=C4C)o3)ccc2Cl)c1` (stereo not shown) [NG-03-205, 5-(5-((1-(3-(1H-Tetrazol-5-yl)phenyl)-3-methyl-5-oxo-4,5-dihydro-1H-pyrazol-4-yl)methyl)furan-2-yl)-2-chloro-N-(3-methoxyphenyl)benzamide], the IC50 in test [1] amounted to 13 µM. Besides, in test [3] (+Inhibitor (20 uM), accurate gene insertion at EMX1 locus, −Inhibitor 14%), the Efficiency stood at 80%. The “In/Out+” value in test [3] (+Inhibitor (20 uM), clones positive in location specific PCR, −Inhibitor 4) came to 4. In test [3] (+Inhibitor (20 uM), puromycin selection 5 days, single cell cloning, −Inhibitor 28), the Clones is 5. The “increase in precise genome insertion efficiency” value in test [3] (H460 cells, 20 uM, versus vehicle) is “greater than 6 fold”.

`COc1cccc(NC(=O)c2cc(-c3ccc(/C=C4\C(=O)N(c5cccc(C(=O)O)c5)N=C4C)o3)ccc2Cl)c1` [NG-01-68/02-140/03-180, (Z)-3-(4-((5-(4-Chloro-3-((3-methoxyphenyl)carbamoyl)phenyl)furan-2-yl)methylene)-3-methyl-5-oxo-4,5-dihydro-1H-pyrazol-1-yl)benzoic acid]: the IC50 in test [1] was 6 µM and 15 µM and 4 µM (2×). The “NHEJ catalyzed repair events” value in test [4] (H460 cells preincubated 2 hours prior to transfection of the reporters, measured 48 hours post transfection, without compound 26%, preliminary data) is given as 17%. Further, the “reduction of NHEJ catalyzed repair events” value in test [4] (H460 cells, 2 hours preincubation, 48 hours post transfection, from 26% to 17%) was determined as 35%.
